This passage reports Activity and EC50 results from ChEMBL document CHEMBL4177535 (Bioorg Med Chem Lett, 2017).

The structures appear in SMILES notation.

For orientation: EC50 means the concentration needed to bring the measured effect to its halfway point.

Assay [1] concerns Human immunodeficiency virus 1. The experiment in a line: Antiviral activity against R5 tropic HIV-1 BAL infected in human PBL assessed as reduction in Agp24 level at 100 uM measured after 3 days by ELISA relative to control. Further details: scale not given: the % may be the effect or the level left. Type of assay: functional. A general note: An ELISA detects its analyte on a solid surface through an enzyme-linked reagent.

In assay [2] the target is Rap guanine nucleotide exchange factor 3 (Homo sapiens, UniProt O95398). The experiment in a line: Activation of EPAC1 DEP1 deletion mutant (unknown origin) expressed in mouse NIH-3T3-A14 cells assessed as increase in Rap1b- fluorescent nucleotide methylontraniloyl-GDP nucleotide exchange by fluorescence assay. It is filed as cell-based.
Sequence of Rap guanine nucleotide exchange factor 3 (O95398 whole entry, looked up): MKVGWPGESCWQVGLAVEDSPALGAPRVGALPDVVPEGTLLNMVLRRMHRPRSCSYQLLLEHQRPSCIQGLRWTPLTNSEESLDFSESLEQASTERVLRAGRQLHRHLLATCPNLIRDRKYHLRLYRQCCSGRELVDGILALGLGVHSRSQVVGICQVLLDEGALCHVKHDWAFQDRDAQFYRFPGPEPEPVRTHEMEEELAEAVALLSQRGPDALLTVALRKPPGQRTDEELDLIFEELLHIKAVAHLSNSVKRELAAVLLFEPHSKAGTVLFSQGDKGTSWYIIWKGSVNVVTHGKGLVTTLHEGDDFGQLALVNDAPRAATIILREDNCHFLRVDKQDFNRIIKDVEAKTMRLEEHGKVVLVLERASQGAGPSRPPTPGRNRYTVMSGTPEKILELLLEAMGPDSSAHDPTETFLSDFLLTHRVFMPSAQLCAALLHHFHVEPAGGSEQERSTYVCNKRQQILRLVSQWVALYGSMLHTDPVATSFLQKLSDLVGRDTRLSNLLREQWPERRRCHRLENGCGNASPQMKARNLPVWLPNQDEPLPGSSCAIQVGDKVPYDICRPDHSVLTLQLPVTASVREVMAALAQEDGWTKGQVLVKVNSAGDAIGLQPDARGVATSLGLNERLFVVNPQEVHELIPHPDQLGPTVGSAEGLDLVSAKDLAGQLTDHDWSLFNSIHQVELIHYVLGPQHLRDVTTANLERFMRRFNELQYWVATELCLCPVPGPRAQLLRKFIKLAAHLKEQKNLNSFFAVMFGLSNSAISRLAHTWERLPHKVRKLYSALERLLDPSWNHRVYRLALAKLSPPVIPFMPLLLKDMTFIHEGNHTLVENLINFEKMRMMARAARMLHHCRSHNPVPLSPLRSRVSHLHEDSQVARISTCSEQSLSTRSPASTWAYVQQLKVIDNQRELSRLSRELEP

On to `CO[C@@H]1[C@@H]2OP(=O)(O)OC[C@H]2O[C@H]1n1c(Sc2ccc(Cl)cc2)nc2c(N)ncnc21`, for which the Activity in assay [1] was determined as 40%. Further, the EC50 in assay [2] was 2200 nM.
